Reference: ChEMBL document CHEMBL6096630, “Enhancing therapeutic efficacy in homologous recombination-proficient pancreatic cancer via the combination of PARP1-PROTAC and a BRD4 inhibitor” (Bioorg Med Chem, 2024)
Activity calls are given as the source filed them. The calls are words filed in the database; no cut-off is given here.

Key:
[1] = Toxicity in BALB/c mouse xenografted with human PANC-1 cells assessed as pathological changes in spleen at 40 mg/kg, ip for 4 weeks administered for 5 days consecutively and 2 days without treatment on every week by H and E staining based analysis; format: organism-based; conditions: in vivo, 672 h
PANC-1 [2] = assay: Induction of apoptosis in human PANC-1 cells assessed as late apoptotic cells at 2 uM incubated for 48 hrs in presence of JQ1 by Annexin V-FITC/PI staining based flow cytometry (reference value: 3.87 %); format: functional
PANC-1 [3] = assay: Induction of DNA damage in human PANC-1 cells assessed as decrease in RAD51 level at 2 uM in presence of JQ1 by Western blot analysis; format: functional, cell-based
PANC-1 [4] = assay: Induction of apoptosis in human PANC-1 cells assessed as late apoptotic cells at 2.5 uM incubated for 48 hrs by Annexin V-FITC/PI staining based flow cytometry (reference value: 3.87 %); format: functional
PANC-1 [5] = assay: Induction of cell cycle arrest in human PANC-1 cells assessed as accumulation at G1 phase at 2.5 uM incubated for 24 hrs by PI staining based flow cytometry (reference value: 51.70 %); format: functional
PANC-1 [6] = assay: Induction of cell cycle arrest in human PANC-1 cells assessed as accumulation at G2 phase at 5 uM incubated for 24 hrs by PI staining based flow cytometry (reference value: 9.36 %); format: functional
PANC-1 [7] = assay: Induction of cell cycle arrest in human PANC-1 cells assessed as accumulation at S phase at 1.2 uM incubated for 24 hrs by PI staining based flow cytometry (reference value: 38.94 %); format: functional
PANC-1 [8] = assay: Induction of apoptosis in human PANC-1 cells assessed as necrotic cells at 2 uM incubated for 48 hrs in presence of JQ1 by Annexin V-FITC/PI staining based flow cytometry (reference value: 3.09 %); format: functional
[9] = Toxicity in BALB/c mouse xenografted with human PANC-1 cells assessed as animal morbidity at 40 mg/kg, ip for 4 weeks administered for 5 days consecutively and 2 days without treatment on every week in presence of JQ1; format: organism-based; conditions: in vivo, 672 h
PANC-1 [10] = assay: Induction of apoptosis in human PANC-1 cells assessed as viable cells at 1.2 uM incubated for 48 hrs by Annexin V-FITC/PI staining based flow cytometry (reference value: 91.64 %); format: functional; conditions: read-out: Activity
PANC-1 [11] = assay: Inhibition of colony formation in human PANC-1 cells at 2 uM incubated for 14 days by crystal violet staining based analysis; format: functional, cell-based; conditions: time 14.0 day
PANC-1 [12] = assay: Induction of cell cycle arrest in human PANC-1 cells assessed as accumulation at S phase at 2 uM incubated for 24 hrs in presence of JQ1 by PI staining based flow cytometry (reference value: 38.94 %); format: functional
PANC-1 [13] = assay: Induction of cell cycle arrest in human PANC-1 cells assessed as accumulation at G0/G1 phase at 0.12 to 2 uM incubated for 24 hrs by PI staining based flow cytometry; format: functional; conditions: dose 0.12-2 µM
PANC-1 [14] = assay: Antitumor activity against human PANC-1 cells xenografted in BALB/c mouse assessed as inhibition of tumor weight at 40 mg/kg, ip for 4 weeks administered for 5 days consecutively and 2 days without treatment on every week in presence of JQ1; format: functional, organism-based
PANC-1 [15] = assay: Induction of cell cycle arrest in human PANC-1 cells assessed as accumulation at S phase at 10 uM incubated for 24 hrs by PI staining based flow cytometry (reference value: 38.94 %); format: functional
[16] = Toxicity in BALB/c mouse xenografted with human PANC-1 cells assessed as animal mortality at 40 mg/kg, ip for 4 weeks administered for 5 days consecutively and 2 days without treatment on every week; format: organism-based; conditions: in vivo, 672 h
PANC-1 [17] = assay: Antitumor activity against human PANC-1 cells xenografted in BALB/c mouse assessed as reduction in tumor growth at 40 mg/kg, ip for 4 weeks administered for 5 days consecutively and 2 days without treatment on every week in presence of JQ1; format: functional, organism-based
[18] = Toxicity in BALB/c mouse xenografted with human PANC-1 cells assessed as drug tolerance at 40 mg/kg, ip for 4 weeks administered for 5 days consecutively and 2 days without treatment on every week in presence of JQ1; format: organism-based; conditions: in vivo, 672 h
PANC-1 [19] = assay: Induction of cell cycle arrest in human PANC-1 cells assessed as accumulation at G1 phase at 1.2 uM incubated for 24 hrs by PI staining based flow cytometry (reference value: 51.70 %); format: functional
PANC-1 [20] = assay: Induction of apoptosis in human PANC-1 cells assessed as early apoptotic cells at 5 uM incubated for 48 hrs by Annexin V-FITC/PI staining based flow cytometry (reference value: 1.41 %); format: functional
PANC-1 [21] = assay: Induction of cell cycle arrest in human PANC-1 cells assessed as accumulation at G1 phase at 0.6 uM incubated for 24 hrs by PI staining based flow cytometry (reference value: 51.70 %); format: functional
[22] = Toxicity in BALB/c mouse xenografted with human PANC-1 cells assessed as pathological changes in kidney at 20 mg/kg, ip for 4 weeks administered for 5 days consecutively and 2 days without treatment on every week in presence of OL by H and E staining based analysis; format: organism-based; conditions: in vivo, 672 h
PANC-1 [23] = assay: Induction of apoptosis in human PANC-1 cells assessed as early apoptotic cells at 0.25 uM incubated for 48 hrs by Annexin V-FITC/PI staining based flow cytometry (reference value: 1.41 %); format: functional
PANC-1 [24] = assay: Induction of apoptosis in human PANC-1 cells assessed as viable cells at 1 uM incubated for 48 hrs by Annexin V-FITC/PI staining based flow cytometry (reference value: 91.64 %); format: functional; conditions: read-out: Activity
PANC-1 [25] = assay: Antitumor activity against human PANC-1 cells xenografted in BALB/c mouse at 20 mg/kg, ip for 4 weeks administered for 5 days consecutively and 2 days without treatment on every week in presence of OL relative to control; format: functional; conditions: PANC-1, 672 h, read-out: TGI
[26] = Toxicity in BALB/c mouse xenografted with human PANC-1 cells assessed as pathological changes in liver at 20 mg/kg, ip for 4 weeks administered for 5 days consecutively and 2 days without treatment on every week by H and E staining based analysis; format: organism-based; conditions: in vivo, 672 h
[27] = Toxicity in BALB/c mouse xenografted with human PANC-1 cells assessed as pathological changes in kidney at 20 mg/kg, ip for 4 weeks administered for 5 days consecutively and 2 days without treatment on every week by H and E staining based analysis; format: organism-based; conditions: in vivo, 672 h
PANC-1 [28] = assay: Induction of apoptosis in human PANC-1 cells assessed as viable cells at 0.12 uM incubated for 48 hrs by Annexin V-FITC/PI staining based flow cytometry (reference value: 91.64 %); format: functional; conditions: read-out: Activity
PANC-1 [29] = assay: Induction of apoptosis in human PANC-1 cells assessed as necrotic cells at 0.5 uM incubated for 48 hrs by Annexin V-FITC/PI staining based flow cytometry (reference value: 3.09 %); format: functional
[30] = Toxicity in BALB/c mouse xenografted with human PANC-1 cells assessed as pathological changes in lung at 20 mg/kg, ip for 4 weeks administered for 5 days consecutively and 2 days without treatment on every week by H and E staining based analysis; format: organism-based; conditions: in vivo, 672 h
PANC-1 [31] = assay: Induction of cell cycle arrest in human PANC-1 cells assessed as accumulation at G1/S phase at 0.12 to 2 uM incubated for 24 hrs by PI staining based flow cytometry; format: functional; conditions: dose 0.12-2 µM

O=C1CCC(N2C(=O)c3cccc(NC(=O)CNCCCCCCCCCCC(=O)N4CCN(C(=O)c5cc(Cc6n[nH]c(=O)c7ccccc67)ccc5F)CC4)c3C2=O)C(=O)N1 (configuration not stated)
Activity [1]: Non-toxic | Activity (PANC-1 [2]): 21.9% | Activity (PANC-1 [3]): Active | Activity (PANC-1 [4]): 4.42% | Activity (PANC-1 [5]): 43.76% | Activity (PANC-1 [6]): 13.63% | Activity (PANC-1 [7]): 42.94% | Activity (PANC-1 [8]): 5% | Activity [9]: Non-toxic | viability at 1.2 µM (PANC-1 [10]): 89.8% | inhibition (PANC-1 [11]): Active | Activity (PANC-1 [12]): 26.81% | Activity (PANC-1 [13]): 43.66% | inhibition (PANC-1 [14]): Active | Activity (PANC-1 [15]): 40.91% | Activity [16]: Non-toxic | Activity (PANC-1 [17]): Active | Activity [18]: Non-toxic | Activity (PANC-1 [19]): 45.72% | Activity (PANC-1 [20]): 4.76% | Activity (PANC-1 [21]): 45.34%

Cc1sc2c(c1C)C(c1ccc(Cl)cc1)=N[C@@H](CC(=O)OC(C)(C)C)c1nnc(C)n1-2
Activity [22]: Non-toxic | Activity (PANC-1 [23]): 4.08% | viability at 1 µM (PANC-1 [24]): 80.3% | Activity (PANC-1 [13]): Active | inhibition in vivo at 20 mg/kg (PANC-1 [25]): 80.7% | Activity [26]: Non-toxic | Activity [27]: Non-toxic | viability at 0.12 µM (PANC-1 [28]): 90.2% | Activity (PANC-1 [29]): 3.56% | Activity [30]: Non-toxic | Activity (PANC-1 [31]): Active

O=C(c1cc(Cc2n[nH]c(=O)c3ccccc23)ccc1F)N1CCN(C(=O)C2CC2)CC1 [OLAPARIB]
Activity [1]: Non-toxic | Activity (PANC-1 [2]): 21.52% | Activity (PANC-1 [3]): Active | Activity (PANC-1 [4]): 4.53% | Activity (PANC-1 [5]): 44.32% | Activity (PANC-1 [6]): 15.24% | Activity (PANC-1 [7]): 41% | Activity (PANC-1 [8]): 4.77% | Activity [9]: Non-toxic | viability at 1.2 µM (PANC-1 [10]): 89.1% | inhibition (PANC-1 [11]): Active | Activity (PANC-1 [12]): 25.85% | inhibition (PANC-1 [14]): Active | Activity (PANC-1 [15]): 44.95% | Activity [16]: Non-toxic | Activity (PANC-1 [17]): Active | Activity [18]: Non-toxic | Activity (PANC-1 [19]): 46.59% | Activity (PANC-1 [20]): 4.21% | Activity (PANC-1 [21]): 46.78%
